# Patent US20250051347A1, “BIFUNCTIONAL CHIMERIC HETEROCYCLIC COMPOUND AND USE THEREOF AS ANDROGEN RECEPTOR DEGRADER” (Hinova Pharmaceuticals, Inc., priority 2021, published 2025)
# Target: T1, androgen receptor (AR) splicing variant AR-v7 (Homo sapiens, UniProt P10275)
# T1 construct: The degradation activity of compounds on AR-v7 in 22RV1 cells; host or cells: 22RV1 cells
# T1 sequence (P10275 1-644 isoform P10275-3): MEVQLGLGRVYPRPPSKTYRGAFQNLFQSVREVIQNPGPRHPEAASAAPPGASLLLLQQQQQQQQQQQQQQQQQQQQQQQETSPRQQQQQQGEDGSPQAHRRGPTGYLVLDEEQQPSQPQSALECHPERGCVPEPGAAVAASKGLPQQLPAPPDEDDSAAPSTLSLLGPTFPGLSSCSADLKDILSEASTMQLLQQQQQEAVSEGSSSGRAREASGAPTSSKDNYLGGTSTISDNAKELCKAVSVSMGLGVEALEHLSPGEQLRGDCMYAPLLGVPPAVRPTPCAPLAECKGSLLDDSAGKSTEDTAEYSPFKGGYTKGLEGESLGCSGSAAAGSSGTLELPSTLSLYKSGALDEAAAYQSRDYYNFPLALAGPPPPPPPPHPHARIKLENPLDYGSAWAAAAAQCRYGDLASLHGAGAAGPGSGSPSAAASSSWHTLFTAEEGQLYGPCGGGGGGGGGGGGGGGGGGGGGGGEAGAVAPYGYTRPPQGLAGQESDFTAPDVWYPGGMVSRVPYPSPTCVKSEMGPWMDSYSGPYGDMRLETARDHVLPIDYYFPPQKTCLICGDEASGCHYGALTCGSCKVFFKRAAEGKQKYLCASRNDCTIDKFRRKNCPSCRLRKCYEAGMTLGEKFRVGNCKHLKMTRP
# Test: Degradation activity on androgen receptor splicing variant AR-v7 in 22RV1 cells (ELISA)
# Format: cell-based
# Settings: AR-v7 degradation in 22RV1 cells, 48 h, class symbols
row,Structure (SMILES),DC50
1,Cc1noc(-c2nccc(COc3ccc(C(C)(C)c4ccc(O[C@H]5C[C@H](Nc6ccc7c(c6)C(=O)N(C6CCC(=O)NC6=O)C7=O)C5)cc4)cc3)n2)n1 (stereo partly drawn) [Example 250],11 to 100 nM
2,CC(C)(c1ccc(OCc2ccnc(-c3ncno3)n2)cc1)c1ccc(O[C@H]2C[C@@H](Nc3ccc4c(c3)C(=O)N(C3CCC(=O)NC3=O)C4=O)C2)cc1 (stereo partly drawn) [Example 252],1000 to 5000 nM
3,CC(C)(c1ccc(OCc2cccc(-n3cccn3)n2)cc1)c1ccc(O[C@H]2C[C@H](Nc3ccc4c(c3)C(=O)N(C3CCC(=O)NC3=O)C4=O)C2)cc1 (stereo partly drawn) [Example 253],11 to 100 nM
4,Cc1nnc(-c2ccnc(Oc3ccc(C(C)(C)c4ccc(O[C@H]5C[C@H](Nc6ccc7c(c6)C(=O)N(C6CCC(=O)NC6=O)C7=O)C5)cc4)cc3)c2)o1 (stereo partly drawn) [Example 257],11 to 100 nM
5,"CC(C)(c1ccc(OCc2ccnc(N3C[C@@H]4C[C@H]3CN4)n2)cc1)c1ccc(O[C@H]2C[C@@H](Nc3ccc4c(c3)C(=O)N(C3CCC(=O)NC3=O)C4=O)C2)cc1 (stereo partly drawn) [Example 260, 5-(((1s,3s)-3-(4-(2-(4-((2-((1S,4S)-2,5-diazabicyclo[2.2.1]heptan-2-yl)pyrimidin-4-yl)methoxy)phenyl)propan-2-yl)phenoxy)cyclobutyl)amino)-2-(2,6-dioxopiperidin-3-yl)isoindolin-1,3-dione]",11 to 100 nM
6,CC(C)(c1ccc(Oc2cnc(C(O)C3CCC3)nc2)cc1)c1ccc(O[C@H]2C[C@H](Nc3ccc4c(c3)C(=O)N(C3CCC(=O)NC3=O)C4=O)C2)cc1 (stereo partly drawn) [Example 261],< 10 nM
7,CC(C)(c1ccc(Oc2cnc(C(=O)C3CCC3)nc2)cc1)c1ccc(O[C@H]2C[C@H](Nc3ccc4c(c3)C(=O)N(C3CCC(=O)NC3=O)C4=O)C2)cc1 (stereo partly drawn) [Example 262],11 to 100 nM
8,Cc1noc(-c2ncc(Oc3ccc(C(C)(C)c4ccc(O[C@H]5C[C@@H](Nc6ccc7c(c6)C(=O)N(C6CCC(=O)NC6=O)C7=O)C5)cc4)cc3)cn2)n1 (stereo partly drawn) [Example 263],11 to 100 nM
9,CC(C)(c1ccc(Oc2cnc(C(F)(F)F)nc2)cc1)c1ccc(O[C@H]2C[C@H](Nc3ccc4c(c3)C(=O)N(C3CCC(=O)NC3=O)C4=O)C2)cc1 (stereo partly drawn) [Example 264],11 to 100 nM
10,"COC(=O)c1ncc(Oc2ccc(C(C)(C)c3ccc(O[C@H]4C[C@H](Nc5ccc6c(c5)C(=O)N(C5CCC(=O)NC5=O)C6=O)C4)cc3)cc2)cn1 (stereo partly drawn) [Example 266, methyl 5-(4-(2-(4-((1r,3r)-3-((2-(2,6-dioxopiperidin-3-yl)-1,3-dioxoisoindolin-5-yl)amino)cyclobutyloxy)phenyl)propan-2-yl)phenoxy)pyrimidin-2-carboxylate]",11 to 100 nM
11,"CC(C)(c1ccc(Oc2cnc(C(=O)O)nc2)cc1)c1ccc(O[C@H]2C[C@H](Nc3ccc4c(c3)C(=O)N(C3CCC(=O)NC3=O)C4=O)C2)cc1 (stereo partly drawn) [Example 267, 5-(4-(2-(4-((1r,3r)-3-((2-(2,6-dioxopiperidin-3-yl)-1,3-dioxoisoindolin-5-yl)amino)cyclobutyloxy)phenyl)propan-2-yl)phenoxy)pyrimidin-2-carboxylic acid]",101 to 1000 nM
12,CC1(CNc2nccc(COc3ccc(C(C)(C)c4ccc(O[C@H]5C[C@@H](Nc6ccc7c(c6)C(=O)N(C6CCC(=O)NC6=O)C7=O)C5)cc4)cc3)n2)COC1 (stereo partly drawn) [Example 269],101 to 1000 nM
13,Cc1noc(C)c1-c1nccc(COc2ccc(C(C)(C)c3ccc(O[C@H]4C[C@H](Nc5ccc6c(c5)C(=O)N(C5CCC(=O)NC5=O)C6=O)C4)cc3)cc2)n1 (stereo partly drawn) [Example 271],11 to 100 nM
14,CC(C)(c1ccc(OCc2ccnc(-c3cncs3)n2)cc1)c1ccc(O[C@H]2C[C@H](Nc3ccc4c(c3)C(=O)N(C3CCC(=O)NC3=O)C4=O)C2)cc1 (stereo partly drawn) [Example 272],11 to 100 nM
15,CC(C)(c1ccc(OCc2ccnc(-c3cc[nH]n3)n2)cc1)c1ccc(O[C@H]2C[C@@H](Nc3ccc4c(c3)C(=O)N(C3CCC(=O)NC3=O)C4=O)C2)cc1 (stereo partly drawn) [Example 274],11 to 100 nM
16,Cc1nc(-c2cccc(COc3ccc(C(C)(C)c4ccc(O[C@H]5C[C@H](Nc6ccc7c(c6)C(=O)N(C6CCC(=O)NC6=O)C7=O)C5)cc4)cc3)n2)no1 (stereo partly drawn) [Example 283],11 to 100 nM
17,CC(C)(c1ccc(OCc2nc(-n3nccn3)ccc2F)cc1)c1ccc(O[C@H]2C[C@H](Nc3ccc4c(c3)C(=O)N(C3CCC(=O)NC3=O)C4=O)C2)cc1 (stereo partly drawn) [Example 284],11 to 100 nM
18,CC(C)(c1ccc(OCc2nc(-n3ccnn3)ccc2F)cc1)c1ccc(O[C@H]2C[C@H](Nc3ccc4c(c3)C(=O)N(C3CCC(=O)NC3=O)C4=O)C2)cc1 (stereo partly drawn) [Example 285],11 to 100 nM
19,CC(C)(c1ccc(OCc2ccc(F)c(-n3ccnn3)n2)cc1)c1ccc(O[C@H]2C[C@H](Nc3ccc4c(c3)C(=O)N(C3CCC(=O)NC3=O)C4=O)C2)cc1 (stereo partly drawn) [Example 286],11 to 100 nM
20,CC(C)(c1ccc(OCc2ccc(F)c(-n3nccn3)n2)cc1)c1ccc(O[C@H]2C[C@H](Nc3ccc4c(c3)C(=O)N(C3CCC(=O)NC3=O)C4=O)C2)cc1 (stereo partly drawn) [Example 287],11 to 100 nM
21,Cc1nc(-c2nccc(Oc3ccc(C(C)(C)c4ccc(O[C@H]5C[C@@H](Nc6ccc7c(c6)C(=O)N(C6CCC(=O)NC6=O)C7=O)C5)cc4)cc3)n2)no1 (stereo partly drawn) [Example 292],11 to 100 nM
22,Cc1noc(-c2ncc(Oc3ccc(C4(c5ccc(O[C@H]6C[C@H](Nc7ccc8c(c7)C(=O)N(C7CCC(=O)NC7=O)C8=O)C6)cc5)CCCC4)cc3)cn2)n1 (stereo partly drawn) [Example 297],< 10 nM
23,CC(=O)c1nccc(COc2ccc(C(C)(C)c3ccc(N4CCC5(CC4)CN(c4ccc6c(c4)C(=O)N(C4CCC(=O)NC4=O)C6=O)C5)cc3)cc2)n1 (stereo not drawn) [Example 305],1000 to 5000 nM
24,"CC(=O)c1nccc(COc2ccc(C(C)(C)c3ccc(OC[C@H]4CCN4c4ccc5c(c4)C(=O)N(C4CCC(=O)NC4=O)C5=O)cc3)cc2)n1 (stereo partly drawn) [Example 307, 5-((R)-2-((4-(2-(4-((2-acetylpyrimidin-4-yl)methoxy)phenyl)propan-2-yl)phenoxy)methyl)azetidin-1-yl)-2-(2,6-dioxopiperidin-3-yl)isoindolin-1,3-dione]",1000 to 5000 nM
25,"CC(C)(c1ccc(C#CCNc2ccc3c(c2)C(=O)N(C2CCC(=O)NC2=O)C3=O)cc1)c1ccc(OCc2ccnc(N3CC4(COC4)C3)n2)cc1 (stereo not drawn) [Example 309, 5-((3-(4-(2-(4-((2-(2-oxa-6-azaspiro[3.3]heptan-6-yl)pyrimidin-4-yl)methoxy)phenyl)propan-2-yl)phenyl)prop-2-yn-1-yl)amino)-2-(2,6-dioxopiperidin-3-yl)isoindolin-1,3-dione]",11 to 100 nM
26,CC(C)(c1ccc(OCC#Cc2ccc3c(c2)C(=O)N(C2CCC(=O)NC2=O)C3=O)cc1)c1ccc(OCc2ccnc(N3CC4(COC4)C3)n2)cc1 (stereo not drawn) [Example 310],101 to 1000 nM

# Same assay, conditions: AR-v7 degradation in 22RV1 cells, 48 h, numeric values
row,Structure (SMILES),DC50
1,CC(=O)c1nccc(COc2ccc(C(C)(C)c3ccc(OCCCCCCCCOCC4CN(c5ccc6c(c5)C(=O)N(C5CCC(=O)NC5=O)C6=O)C4)cc3)cc2)n1 (stereo not drawn) [Example 298],> 10000 nM
2,"CC(=O)c1nccc(COc2ccc(C(C)(C)c3ccc(OCCCCCCCCOCCN4CCN(c5ccc6c(c5)C(=O)N(C5CCC(=O)NC5=O)C6=O)CC4)cc3)cc2)n1 (stereo not drawn) [Example 299, 5-(4-(2-((8-(4-(2-(4-((2-acetylpyrimidin-4-yl)methoxy)phenyl)propan-2-yl)phenoxy)octyl)oxy)ethyl)piperazin-1-yl)-2-(2,6-dioxopiperidin-3-yl)isoindolin-1,3-dione]",> 10000 nM
3,CC(O)c1nccc(COc2ccc(C(C)(C)c3ccc(OCCCCCCCCOCCN4CCN(c5ccc6c(c5)C(=O)N(C5CCC(=O)NC5=O)C6=O)CC4)cc3)cc2)n1 (stereo not drawn) [Example 300],> 10000 nM
4,"CC(=O)c1nccc(COc2ccc(C(C)(C)c3ccc(OCC4CCN(c5cccc6c5C(=O)N(C5CCC(=O)NC5=O)C6=O)C4)cc3)cc2)n1 (stereo not drawn) [Example 301, 4-(3-((4-(2-(4-((2-acetylpyrimidin-4-yl)methoxy)phenyl)propan-2-yl)phenoxy)methyl)pyrrolidin-1-yl)-2-(2,6-dioxopiperidin-3-yl)isoindolin-1,3-dione]",> 10000 nM
5,"CC(=O)c1nccc(COc2ccc(C(C)(C)c3ccc(OCC4CCN(c5ccc6c(c5)C(=O)N(C5CCC(=O)NC5=O)C6=O)C4)cc3)cc2)n1 (stereo not drawn) [Example 302, 5-(3-((4-(2-(4-((2-acetylpyrimidin-4-yl)methoxy)phenyl)propan-2-yl)phenoxy)methyl)pyrrolidin-1-yl)-2-(2,6-dioxopiperidin-3-yl)isoindolin-1,3-dione]",≥ 10000 nM
6,"CC(=O)c1nccc(COc2ccc(C(C)(C)c3ccc(OCC4CCCN(c5cccc6c5C(=O)N(C5CCC(=O)NC5=O)C6=O)C4)cc3)cc2)n1 (stereo not drawn) [Example 303, 4-(3-((4-(2-(4-((2-acetylpyrimidin-4-yl)methoxy)phenyl)propan-2-yl)phenoxy)methyl)piperidin-1-yl)-2-(2,6-dioxopiperidin-3-yl)isoindolin-1,3-dione]",> 10000 nM
7,"CC(=O)c1nccc(COc2ccc(C(C)(C)c3ccc(OCC4CCCN(c5ccc6c(c5)C(=O)N(C5CCC(=O)NC5=O)C6=O)C4)cc3)cc2)n1 (stereo not drawn) [Example 304, 5-(3-((4-(2-(4-((2-acetylpyrimidin-4-yl)methoxy)phenyl)propan-2-yl)phenoxy)methyl)piperidin-1-yl)-2-(2,6-dioxopiperidin-3-yl)isoindolin-1,3-dione]",> 2500 nM
